Here are results for 16 compounds from patent US7235569B2, “Piperidinyl indole and tetrohydropyridinyl indole derivatives and method of their use” (Wyeth, priority 2003, dated 2007).

Like-named read-outs stand apart in the source and are kept apart here.

In one series the target is T1, 5-HT transporter (Rattus norvegicus, UniProt P31652).
T1 construct: frontal cortical membranes prepared from male S.D. rats; from tissue; host or cells: frontal cortical membranes of male Sprague-Dawley rats
Nature of the series: Rat Brain 3H-Paroxetine Binding Assay (RB 5HT Transporter). As for the experimental part:
Rat Brain ^3H-Paroxetine Binding Assay (RB 5HT Transporter)
This assay was used to determine a compound's affinity of the 5-HT transporter. […] Briefly, frontal cortical membranes prepared from male S.D. rats were incubated with ^3H-parxetine (0.1 nM) for 60 min. at 25° C. All tubes also contained either vehicle, test compound (one to eight concentrations), or a saturating concentration of fluoxetine (10 μM) to define […]. All reactions are terminated by the addition of ice cold Tris buffer followed by rapid filtration using a Tom Tech filtration device to separate bound from free ^3H-paroxetine.

Another series concerns the target Human 5-HT Transporter (Homo sapiens, UniProt P31645). As to the kind of experiment: cell-based.
Another series addresses T2, human 5-HT1A receptors (Homo sapiens, UniProt P08908).
T2 construct: expressed in transfected cells
T2 sequence (P08908 1-422): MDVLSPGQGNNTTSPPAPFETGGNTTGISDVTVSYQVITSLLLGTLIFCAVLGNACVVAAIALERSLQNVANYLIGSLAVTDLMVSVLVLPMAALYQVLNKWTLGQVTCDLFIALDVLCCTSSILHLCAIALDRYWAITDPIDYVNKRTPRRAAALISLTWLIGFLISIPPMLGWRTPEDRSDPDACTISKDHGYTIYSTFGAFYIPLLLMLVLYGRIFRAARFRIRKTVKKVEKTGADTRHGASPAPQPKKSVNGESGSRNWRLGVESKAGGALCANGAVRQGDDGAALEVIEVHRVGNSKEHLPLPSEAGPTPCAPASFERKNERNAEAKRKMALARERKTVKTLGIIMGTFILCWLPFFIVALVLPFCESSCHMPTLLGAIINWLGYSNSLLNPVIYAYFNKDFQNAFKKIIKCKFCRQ
As to the kind of experiment: [3H] 8-OH-DPAT displacement from 5-HT1A receptor (CHO cells stably transfected). The format is binding. The settings on record: for inhibition at 1 µM: read-out: 5-HT1A % inhibition at 1 μM, cells marked * in the 5-HT1A column.

Setting [1] is: rat frontal cortical membranes, 3H-paroxetine 0.1 nM, read-out: RB-5HT Transporter Ki.

T1 sequence (P31652 whole entry): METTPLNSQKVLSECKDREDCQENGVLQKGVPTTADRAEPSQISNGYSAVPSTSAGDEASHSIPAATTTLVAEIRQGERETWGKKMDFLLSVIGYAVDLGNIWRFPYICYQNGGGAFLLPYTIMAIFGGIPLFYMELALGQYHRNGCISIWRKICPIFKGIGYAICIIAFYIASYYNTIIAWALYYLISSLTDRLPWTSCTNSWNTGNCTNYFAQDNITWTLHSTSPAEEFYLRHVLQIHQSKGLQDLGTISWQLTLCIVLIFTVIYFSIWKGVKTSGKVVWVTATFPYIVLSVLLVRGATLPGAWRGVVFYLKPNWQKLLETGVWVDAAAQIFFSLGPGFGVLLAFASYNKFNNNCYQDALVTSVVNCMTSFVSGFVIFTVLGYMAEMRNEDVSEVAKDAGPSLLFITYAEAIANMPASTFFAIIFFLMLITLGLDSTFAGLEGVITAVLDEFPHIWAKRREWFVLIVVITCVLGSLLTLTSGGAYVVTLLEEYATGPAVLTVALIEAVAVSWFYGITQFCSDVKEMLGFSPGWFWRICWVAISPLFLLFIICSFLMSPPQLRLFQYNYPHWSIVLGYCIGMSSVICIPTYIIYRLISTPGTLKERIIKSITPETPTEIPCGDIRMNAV
Human 5-HT Transporter, sequence (P31645 whole entry): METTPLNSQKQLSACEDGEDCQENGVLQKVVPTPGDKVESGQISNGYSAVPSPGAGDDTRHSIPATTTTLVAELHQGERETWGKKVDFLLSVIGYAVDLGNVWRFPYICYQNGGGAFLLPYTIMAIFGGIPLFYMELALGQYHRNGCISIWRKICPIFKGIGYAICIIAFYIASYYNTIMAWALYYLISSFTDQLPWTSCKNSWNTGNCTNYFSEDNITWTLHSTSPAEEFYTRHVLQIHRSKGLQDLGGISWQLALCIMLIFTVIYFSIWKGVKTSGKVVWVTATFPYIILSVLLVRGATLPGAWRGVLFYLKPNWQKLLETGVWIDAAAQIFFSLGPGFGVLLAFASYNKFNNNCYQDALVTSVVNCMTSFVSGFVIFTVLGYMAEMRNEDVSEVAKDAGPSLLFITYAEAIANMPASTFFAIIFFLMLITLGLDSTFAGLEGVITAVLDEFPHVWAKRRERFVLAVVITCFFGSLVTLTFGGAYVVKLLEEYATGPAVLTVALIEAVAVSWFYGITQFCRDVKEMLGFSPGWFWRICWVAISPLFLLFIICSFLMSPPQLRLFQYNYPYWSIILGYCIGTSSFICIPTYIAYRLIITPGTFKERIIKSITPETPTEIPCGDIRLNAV
Description for Human 5-HT Transporter: On the day of assay, vehicle, excess of fluoxetine, or test compound is added to various wells on the plate. All wells then receive ^3H-5-HT and are incubated at 37° C. for 5 min. The wells are then washed with ice cold 50 mM Tris HCl (pH 7.4) buffer and aspirated to remove free ^3H-5-HT. 25 μl of 0.25 M NaOH is then added to each well to lyse the cells and 75 μl scintillation cocktail (Microscint™ 20) added prior to quantitation on a Packard TopCount machine. Tubes with vehicle represent total possible uptake, radioactivity counted in tubes with fluoxetine represent nonspecific binding/uptake and is subtracted from the total possible uptake to give total possible specific uptake. […] Specific uptake is then expressed as a % of control values and is analyzed using nonlinear regression analysis (Prizm) to determine IC50 values.

Usually Ki stands for the dissociation constant of the complex between target and ligand, obtained from inhibition or displacement. By inhibition is commonly meant how much of the control response was suppressed. For `CC(CN1CC=C(c2c[nH]c3cc(F)ccc23)CC1)c1coc2ccccc12` (centres unmarked) [Compound 36, 3-{1-[2-(1-benzofuran-3-yl)propyl]-1,2,3,6-tetrahydro-4-pyridinyl}-6-fluoro-1H-indole], the Ki on 5-HT transporter was 4.43 nM; at Human 5-HT Transporter, 42 nM. The inhibition at 1 µM on human 5-HT1A receptors came out at 11%.
As to `c1ccc2c(c1)ccc1c(CCN3CCC(c4c[nH]c5ccccc45)CC3)coc12` [Compound 34, 3-{1-(2-Naphtho[1,2-b]furan-3-yl-ethyl)-piperidin-4-yl]-1H-indole], the Ki at 5-HT transporter (setting [1]) came to 62 nM; at Human 5-HT Transporter it was 276 nM. For the same compound, the inhibition at 1 µM at human 5-HT1A receptors amounted to 48%.
For `COc1cccc2c(CC(C)N3CC=C(c4c[nH]c5cc(F)ccc45)CC3)coc12` (centres unmarked) [Compound 42, 3-{1-[2-(7-methoxy-1-benzofuran-3-yl)-1-methylethyl]-1,2,3,6-tetrahydro-4-pyridinyl}-6-fluoro-1H-indole], the Ki was 3.74 nM on 5-HT transporter, 48.7 nM at Human 5-HT Transporter and 69.4 nM on human 5-HT1A receptors.
Turning to `Clc1ccc2occ(CCN3CC=C(c4cnc5ccccn45)CC3)c2c1` [Compound 44, 3-{1-[2-(5-chloro-1-benzofuran-3-yl)ethyl]-1,2,3,6-tetrahydropyridin-4-yl}imidazo[1,2-a]pyridine], the Ki was 97 nM on 5-HT transporter and 63.8 nM on Human 5-HT Transporter. Also, the inhibition at 1 µM at human 5-HT1A receptors was 44%.
In general, melting point refers to the temperature of the solid-liquid transition. `C1=C(c2c[nH]c3ccccc23)CCN(CCc2csc3ccccc23)C1` [Compound 28, 3-{1-[2-(1-benzothiophene-3-yl)ethyl]-1,2,3,6-tetrahydro-4-pyridinyl}-1H-indole] came in with a melting point of 195 to 198 °C. The compound further showed a Ki at 5-HT transporter of 6.25 nM. The same compound returned a Ki on Human 5-HT Transporter of 11.1 nM. The compound also returned a Ki on human 5-HT1A receptors of 67.9 nM.
For the compound `COc1ccc2occ(CC(C)N3CC=C(c4c[nH]c5ccccc45)CC3)c2c1` (centres unmarked) [Compound 43, 3-{1-[2-(5-methoxy-1-benzofuran-3-yl)-1-methylethyl]-1,2,3,6-tetrahydro-4-pyridinyl}-1H-indole], the Ki on 5-HT transporter came out at 12 nM; at Human 5-HT Transporter it was 144 nM. For the same compound, the inhibition at 1 µM at human 5-HT1A receptors amounted to 34%.
Turning to `C=CCn1cc(C2=CCN(CCc3csc4ccc(Cl)cc34)CC2)c2ccccc21` [Compound 32, 3-{1-[2-(5-chloro-1-benzothiophene-3-yl)ethyl]-1,2,3,6-tetrahydro-4-pyridinyl}-1-(2-propenyl)-1H-indole], the Ki on 5-HT transporter (setting [1]) came out at 132 nM. In addition, the inhibition at 1 µM at human 5-HT1A receptors turned out to be 34%.
On to `COc1cccc2c(CC(C)N3CC=C(c4c[nH]c5ccccc45)CC3)coc12` (centres unmarked) [Compound 41, 3-{1-[2-(7-methoxy-1-benzofuran-3-yl)-1-methylethyl]-1,2,3,6-tetrahydro-4-pyridinyl}-1H-indole], for which the Ki on 5-HT transporter is 8.93 nM; at Human 5-HT Transporter, 68.8 nM; at human 5-HT1A receptors, 11.5 nM.
Take `Cn1cc(C2=CCN(CCc3csc4ccc(Cl)cc34)CC2)c2ccccc21` [Compound 33, 3-{1-[2-(5-chloro-1-benzothiophene-3-yl)ethyl]-1,2,3,6-tetrahydro-4-pyridinyl}-1-methyl-1H-indole]: on 5-HT transporter, the Ki amounted to 39 nM. For the same compound, the inhibition at 1 µM at human 5-HT1A receptors was 45%.
On to `Clc1ccc2scc(CCN3CC=C(c4c[nH]c5ccccc45)CC3)c2c1` [Compound 31, 3-{1-[2-(5-chloro-1-benzothiophene-3-yl)ethyl]-1,2,3,6-tetrahydro-4-pyridinyl}-1H-indole], for which the Ki came to 172 nM at 5-HT transporter (setting [1]) and 2900 nM at Human 5-HT Transporter. The inhibition at 1 µM on human 5-HT1A receptors came out at 29%.
Turning to `Cn1cc(C2=CCN(CCc3coc4ccccc34)CC2)c2ccccc21` [Compound 2, 3-{1-[2-(1-benzofuran-3-yl)ethyl]-1,2,3,6-tetrahydro-4-pyridinyl}-1-methyl-1H-indole], the Ki worked out at 6 nM at 5-HT transporter and 18.3 nM at human 5-HT1A receptors.
For `C=CCn1cc(C2=CCN(CCc3csc4ccccc34)CC2)c2ccccc21` [Compound 29, 3-{1-[2-(1-benzothiophene-3-yl)ethyl]-1,2,3,6-tetrahydro-4-pyridinyl}-1-(2-propenyl)-1H-indole], the Ki on 5-HT transporter (setting [1]) came to 104 nM; on Human 5-HT Transporter, 1120 nM; at human 5-HT1A receptors ([3H] 8-OH-DPAT displacement, CHO cells with human 5-HT1A, read-out: 5-HT1A Ki) it was 243 nM.
As to `CC(CN1CC=C(c2c[nH]c3ccc(F)cc23)CC1)c1coc2ccccc12` (centres unmarked) [Compound 37, 3-{1-[2-(1-benzofuran-3-yl)propyl]-1,2,3,6-tetrahydro-4-pyridinyl}-5-fluoro-1H-indole], the Ki was 21 nM at 5-HT transporter and 152 nM on Human 5-HT Transporter. The inhibition at 1 µM on human 5-HT1A receptors amounted to 20%.
As to `Cn1cc(C2=CCN(CCc3csc4ccccc34)CC2)c2ccccc21` [Compound 30, 3-{1-[2-(1-benzothiophene-3-yl)ethyl]-1,2,3,6-tetrahydro-4-pyridinyl}-1-methyl-1H-indole], the Ki came out at 13 nM on 5-HT transporter, 421 nM at Human 5-HT Transporter and 53.1 nM at human 5-HT1A receptors.
Consider `COc1ccc2c(CCN3CC=C(c4c[nH]c5cc(C#N)ccc45)CC3)coc2c1` [Compound 13, 3-{1-[2-(6-methoxy-1-benzofuran-3-yl)ethyl]-1,2,3,6-tetrahydro-4-pyridinyl}-6-cyano-1H-indole], for which the melting point is 181 °C. This compound also came in with a Ki at 5-HT transporter of 3.36 nM. Besides, the Ki on Human 5-HT Transporter is 34.1 nM. Moreover, the affinity on human 5-HT1A receptors corresponds to a Ki of 12.7 nM.
In the case of `CC(CN1CC=C(c2c[nH]c3ccccc23)CC1)c1coc2ccccc12` (centres unmarked) [Compound 35, 3-{1-[2-(1-benzofuran-3-yl)propyl]-1,2,3,6-tetrahydro-4-pyridinyl}-1H-indole], the Ki on 5-HT transporter was 16 nM; at Human 5-HT Transporter, 130 nM. Further, the inhibition at 1 µM at human 5-HT1A receptors is 28%.
